{"source": "patent EP0378285A1", "about": "“Substituted alkenes, processes for their preparation and their use as pesticides” (priority 1989, dated 1990)", "type_in_all_cases": "in vivo", "key": {"Aphis fabae": {"test_system": "Aphis fabae", "assay": "Activity in prophylactic treatment of leaf discs against Aphis fabae", "details": "Aphis fabae, foliar, 48 h; 0.1% aqueous preparation; field bean leaf discs infested with wingless stages; 2 days at 25 C; percentage mortality, Abbott's method", "procedure": "From the primary leaf of field beans (Phaseolus vulgaris nanus Aschers.), 24 mm diameter discs were cut. Some of these were treated with a 0.1% aqueous preparations of compounds of the invention and these along side untreated discs were placed on filter papers with the underside of the leaves turned upwards. After drying the test pieces, they were each infested with wingless stages of Aphis fabae (approx 100 per leaf piece). The experiment was replicated 3 times. The leaves were kept on wet filter papers for 2 days at 25 C and 16 hours light per day. The percentage mortality was then estimated and the activity calculated using Abbott's method in comparison with the untreated controls."}, "[1]": {"test_system": "brown rice-hoppers (Niliparvata lugens Stal)", "assay": "Use Example B: activity in prophylactic treatment of leaves against brown rice-hoppers", "details": "48 h, read-out: activity", "from_the_text": "Activity in prophylactic treatment of leaves against brown rice-hoppers (Niliparvata lugens Stal)\nRice seedlings (Oryzae sativa L.) in the two leaf stage (about 10 per polystyrene pot of size 6.5 x 6.5 cm) were either untreated or […] until dripping wet, with an aqueous preparation containing 0.1 % of active material. After drying the sprayed leaves, a transparent cylinder was placed over each pot and through an opening, about 30 brown rice-hoppers (Niliparvata lugens) in the 4-5 stage, anaesthetised with carbon dioxide, were introduced into each pot. After closing the opening with a fine mesh screen, the pots were kept for 2 days at 28° C and 16 hours/day of light in the glasshouse, the amount of dead hoppers was determined. The percentage mortality was then estimated and the activity calculated using Abbott's method in comparison with the untreated controls."}, "[2]": {"test_system": "two spotted mite (Tetranychus urticae Koch)", "assay": "Use Example C: activity in the prophylactic treatment of feed against the two spotted mite", "details": "foliar, 0.1 % aqueous preparation, field bean leaf discs, adults and eggs counted after 3 days at 25 C, larvae after a further 7 days, Abbott's method", "procedure": "Activity in the prophylactic treatment of feed against the two spotted mite (Tetranychus urticae Koch)\nFrom the primary leaf of field beans (Phaseolus vulgaris nanus Aschers.) 14 mm diameter discs were cut. Some of these were treated with a 0.1 % aqueous preparations of compounds of the invention and these along side untreated discs were placed on filter papers with the underside of the leaves turned upwards. After drying the test pieces, they were each infested with six adult female Tetranychus urticae and maintained for 3 days at 25 C and 16 hours light per day. The experiment was replicated 4 times. Dead and alive adults were then counted and removed. Similarly the number of eggs laid were counted. After a further 7 days, the number of living larvae were counted, the activity calculated using Abbott's method in comparison with the untreated controls."}, "[3]": {"test_system": "corn rootworm (Diabrotica undecimpunctata)", "assay": "Use Example D: activity against eggs/larvae of the corn rootworm", "details": "Diabrotica undecimpunctata, 168 h; aqueous emulsion 0.1%, 0.2 ml pipetted into soil; 7 days at 25 C; death of eggs or newly hatched larvae", "procedure": "Activity against eggs/larvae of the corn rootworm (Diabrotica undecimpunctata)\nThe compounds of the invention were made up as aqueous emulsions at a concentration of 0.1%. Into the soil in polystyrene petri dishes, containing maize seedlings (1 seedling/dish) and ca. 50 eggs of the corn rootworm (Diabrotica undecimpunctata) were pipetted 0.2 ml of these preparations. The closed dishes were left at 25 C under extended daylight conditions for 7 days. The criterion for judging the activity was the death of eggs or newly hatched larvae at the end of the test."}, "[4]": {"test_system": "cotton bollworm (Heliothis viriscens)", "assay": "whole plant or invertebrate", "details": "48 h, read-out: activity", "procedure": "Activity against larvae (L1) of the cotton bollworm (Heliothis viriscens)\nCompounds of the invention were made up as aqueous preparations at a concentration of 0.1 %. Into these, feed material was dipped for 2 seconds. After drying the feed material was put into into polystyrene petri dishes. After an hour, 10 L1 of the cotton bollworm (Heliothis viriscens) were counted into the dishes. The closed dishes were left for up to 7 days at 25 °C under extended daylight conditions. The % mortality of the larvae after two days indicated the level of activity."}, "[5]": {"test_system": "cotton bollworm (Heliothis viriscens)", "assay": "Use Example H: ovicidal activity against eggs of the cotton bollworm", "details": "aqueous preparation 0.1 %; one day old eggs dipped; four days; % inhibition of hatching of the eggs", "from_the_text": "Ovicidal activity against eggs of the cotton bollworm (Heliothis viriscens)\nThe compounds of the invention were made up as aqueous preparations at a concentration of 0.1 %. One day old eggs that had been laid on filter paper by fertilised female moths were dipped in the preparations until they were completely wet and then placed in closed petri dishes under extended daylight conditions for four days. The % inhibition of hatching of the eggs in comparison with untreated eggs indicates the level of activity."}}}
{"smiles": "C=C(C)C(C)(C)COCc1ccc(F)c(Nc2ccccc2)c1", "note": "[Example 20, 4-(3-anilino-4-fluorobenzyloxy)-2,3,3-trimethyl-1-butene]", "values": [{"measurement": "mortality at 0.1 %", "setting": "Aphis fabae", "value": "≥ 80", "unit": "%"}, {"measurement": "mortality at 0.1 %", "setting": "[1]", "value": "≥ 80", "unit": "%"}, {"measurement": "mortality at 0.1 %", "setting": "[2]", "value": "80 to 100", "unit": "%"}, {"measurement": "mortality at 0.1 %", "setting": "[3]", "value": "80 to 100", "unit": "%"}, {"measurement": "mortality at 0.1 %", "setting": "[4]", "value": "80 to 100", "unit": "%"}, {"measurement": "activity", "setting": "[5]", "value": "80 - 100%"}]}
